{"source": "patent US10138292B2", "about": "“Cell culture medium” (BIOLAMINA AB, priority 2010, dated 2018)", "molecules": {"B1": {"name": "E-Cadherin: epithelial-cadherin used as cell culture dish coating (protein, UniProt P12830 155-882, looked up)", "Cadherin-1": "DWVIPPISCPENEKGPFPKNLVQIKSNKDKEGKVFYSITGQGADTPPVGVFIIERETGWLKVTEPLDRERIATYTLFSHAVSSNGNAVEDPMEILITVTDQNDNKPEFTQEVFKGSVMEGALPGTSVMEVTATDADDDVNTYNAAIAYTILSQDPELPDKNMFTINRNTGVISVVTTGLDRESFPTYTLVVQAADLQGEGLSTTATAVITVTDTNDNPPIFNPTTYKGQVPENEANVVITTLKVTDADAPNTPAWEAVYTILNDDGGQFVVTTNPVNNDGILKTAKGLDFEAKQQYILHVAVTNVVPFEVSLTTSTATVTVDVLDVNEAPIFVPPEKRVEVSEDFGVGQEITSYTAQEPDTFMEQKITYRIWRDTANWLEINPDTGAISTRAELDREDFEHVKNSTYTALIIATDNGSPVATGTGTLLLILSDVNDNAPIPEPRTIFFCERNPKPQVINIIDADLPPNTSPFTAELTHGASANWTIQYNDPTQESIILKPKMALEVGDYKINLKLMDNQNKDQVTTLEVSVCDCEGAAGVCRKAQPVEAGLQIPAILGILGGILALLILILLLLLFLRRRAVVKEPLLPPEDDTRDNVYYYDEEGGGEEDQDFDLSQLHRGLDARPEVTRNDVAPTLMSVPRYLPRPANPDEIGNFIDENLKAADTDPTAPPYDSLLVFDYEGSGSEAASLSSLNSSESDKDQDYDYLNEWGNRFKKLADMYGGGEDD"}}, "key": {"[1]": {"test_system": "PI3K/Akt and MEK1/Erk pathways", "test": "Western blot with antibodies to phospho-Akt / phospho-Erk", "type": "cell-based, human", "settings": "cells collected one hour after plating on LN-521", "method": "HS 181 cells were trypsinized into single cell suspension as described above. For inhibition experiments, the cells were kept in O3 medium with blocking antibodies or pathway inhibitors for 30 minutes and then 450K cells were plated on 35 mm dishes precoated with the appropriate matrix coating. For other experiments, same number of cells was plated directly after trypsinization. In all cases the cells were allowed to spread for 1 hour at 37° C., 5% CO2. After two washings in ice-cold PBS, the plates with cells were snap frozen in liquid nitrogen and stored at −80° C. To prepare samples for western blots and ELISA, the plates were slowly thawed and kept on ice with 100-150 μl of lysis buffer (50 mM Tris-HCl, pH7.5, 150 mM NaCl, 0.5% deoxycholate, 0.5% SDS, 1% Triton X-100, 1% Igepal, Complete™ (Roche) and Phospho-Stop™ (Roche)) on top. Then, the cells were scraped, pipetted and sheared through a 27G ¾″ needle. After that, the cell pellets were clarified by centrifugation at 16,100 rcf for 15 minutes at 4° C. For western blots, 4-12% gradient gels were used for SDS electrophoresis and the proteins were transferred to PVDF membranes. The membrane was hybridized with the antibody of interest according to the manufacturer's instructions. […] For the densitometry analysis the films were scanned at 2,400 dpi and analyzed by the Chemilmager5500 program (1D-Multi Line densitometry mode). […]"}, "[2]": {"test_system": "hES cells", "test": "Inhibition of survival assay on LN-521", "type": "cell-based, human", "settings": "medium contained bFGF", "method": "(§1) The survival assay was performed as described for the cell adhesion assay above, except that the cells were left in the cell incubator for 24 hours. For inhibition of survival assay, the cells were kept in a medium with function blocking antibodies at the concentrations recommended by the manufacturer or pathway inhibitors at concentrations indicated in the text for 30 minutes, and then plated on the coated dishes. All the experiments were performed in quadruplicate."}, "[3]": {"test_system": "hES cells", "test": "Cell survival assay, 24 hours (Example 2)", "type": "cell-based, human", "settings": "for survival after 24 hours: dissociated hES cells; for survival 24 hours after plating: single cell suspension, O3 medium, absence of ROCK inhibitor", "method": "as §1\nPluripotent hES cells express α1, α5, β1, β2 and γ1 laminin chains. To compare the adhesion and clonal survival of hES cells plated from single cell suspension to different coating substrata, hES cells growing as monolayers on LN-511 or as clusters on a feeder layer were trypsinized into single cell suspension in O3 medium and plated on cell culture dishes coated with Matrigel, LN-111, LN-511, LN-521 or a mixture of LN-511 and LN-521, in the absence or presence of a ROCK inhibitor (Y-27632) and analyzed after 24 hours."}, "[4]": {"test_system": "human ES cells", "test": "Cell adhesion / single cell survival 1 day after plating (Example 1)", "type": "cell-based", "settings": "for cells remaining attached / surviving 24 hours after plating: completely dissociated H5181 cells, O3 medium without any additives, no ROCK inhibitor", "method": "(§2) Ninety-six-well tissue cell culture plates were coated overnight at 4° C. with sterile solutions of the ECM proteins mouse LN-111 (Invitrogen), human recombinant LN-511, and human recombinant LN-521, all at a concentration of 30 μg/ml (5 μg/cm^2). For control cells, BD Matrigel™ hESC qualified (BD Biosciences) was used according to the manufacturer's instructions.\n(§3) The assay was performed as described (Extracellular Matrix Protocols, 2000). Briefly, 96-well plates were coated by extracellular matrix proteins as described above and blocked by O3 medium containing bovine serum albumin. The ES cells were plated at a cell density of 600 cell/mm^2 upon extracellular matrix-coated plates and were left to adhere for either 1 hour or 1 day at the cell incubator. Non-adherent cells were washed away, and adherent cells were fixed for 20 min by 5% glutaraldehyde, stained by 0.1% Crystal Violet."}, "[5]": {"test_system": "phosphorylated myosin light chain (P-MLC)", "test": "Western blot of phosphorylated myosin light chain", "type": "cell-based, human", "settings": "one and six hours after plating", "method": "HS 181 cells were trypsinized into single cell suspension as described above. For inhibition experiments, the cells were kept in O3 medium with blocking antibodies or pathway inhibitors for 30 minutes and then 450K cells were plated on 35 mm dishes precoated with the appropriate matrix coating. For other experiments, same number of cells was plated directly after trypsinization. […] After two washings in ice-cold PBS, the plates with cells were snap frozen in liquid nitrogen and stored at −80° C. To prepare samples for western blots and ELISA, the plates were slowly thawed and kept on ice with 100-150 μl of lysis buffer (50 mM Tris-HCl, pH7.5, 150 mM NaCl, 0.5% deoxycholate, 0.5% SDS, 1% Triton X-100, 1% Igepal, Complete™ (Roche) and Phospho-Stop™ (Roche)) on top. Then, the cells were scraped, pipetted and sheared through a 27G ¾″ needle. After that, the cell pellets were clarified by centrifugation at 16,100 rcf for 15 minutes at 4° C. For western blots, 4-12% gradient gels were used for SDS electrophoresis and the proteins were transferred to PVDF membranes. The membrane was hybridized with the antibody of interest according to the manufacturer's instructions. Chemoluminescent HRP-substrate from Amersham Biosciences was used for visualization. For the densitometry analysis the films were scanned at 2,400 dpi and analyzed by the Chemilmager5500 program (1D-Multi Line densitometry mode). […]"}, "[6]": {"test_system": "mouse ES cells", "settings": "without LIF or feeder cells; cited from earlier work"}, "[7]": {"test_system": "human ES cells", "settings": "teratomas after engraftment into SCID mice; cited from earlier work"}, "[8]": {"test_system": "human ES cells", "test": "Cell adhesion assay, 1 hour (Example 1)", "type": "cell-based", "settings": "O3 medium without any additives, without Y-27632", "method": "as §2, §3"}, "[9]": {"test_system": "human embryonic stem cells", "test": "Survival of dissociated human embryonic stem cells one day after plating on precoated dishes", "type": "cell-based", "settings": "single cell suspension, O3 medium, 30 Kcells/cm^2", "from_the_text": "In other aspects, the present disclosure provides a new material, isolated laminin-521, which permits human embryonic stem cell survival after dissociation into single cell suspension. The stem cells were dissociated into single cell suspension by Trypsin-EDTA treatment, pelleted by centrifugation, resuspended into O3 medium, filtered through a 40 μm sieve, and plated at a density of 30 Kcells/cm^2 on cell culture dishes precoated by either isolated laminin-521, laminin-511, or Matrigel. After one day in culture, the cells plated on Matrigel died, as is known in the art."}, "[10]": {"test_system": "hES cells", "test": "Cell adhesion assay, 1 hour (Example 2)", "type": "cell-based, human", "settings": "not shown", "method": "Tissue cell culture plates were coated overnight at 4° C. with sterile solutions of the ECM proteins, such as human recombinant LN-521, all at a concentration of 30 μg/ml (5 μg/cm^2). Control plates were coated with Matrigel according to the STEMCELL Technologies' instructions. Prior to use, dishes were pre-warmed in an incubator for one hour after which prewarmed O3 medium was added without additional washing of the dish. After applying a fresh LN-521 solution to a new dish, the remaining LN-521 solution could be used at least once more. All the adhesion, survival, and inhibition of survival experiments were carried out using fresh coating materials.\nBriefly, 96-well plates were coated by extracellular matrix proteins as described above and blocked by O3 medium containing bovine serum albumin. The ES cells were plated at cell density of 50,000 cells/cm^2 onto extracellular matrix-coated plates and left to adhere for 1 hour in a cell incubator. After that the plates were washed 3 times with the medium to remove the non-adherent cells, and then the adherent cells were fixed for 20 minutes by 5% glutaraldehyde, stained by 0.1% Crystal Violet. (Kebo Lab, Spanga, Sweden, http://www.kebolab.se). After one hour and 3 washes with water, Crystal Violet was extracted with 10% acetic acid and quantified by measuring optical density at 570 nm. All the experiments were performed in quadruplicate."}, "[11]": {"target": "Integrin α6β1 (Homo sapiens, UniProt P05556+P23229)", "sequence (P23229 24-1130)": "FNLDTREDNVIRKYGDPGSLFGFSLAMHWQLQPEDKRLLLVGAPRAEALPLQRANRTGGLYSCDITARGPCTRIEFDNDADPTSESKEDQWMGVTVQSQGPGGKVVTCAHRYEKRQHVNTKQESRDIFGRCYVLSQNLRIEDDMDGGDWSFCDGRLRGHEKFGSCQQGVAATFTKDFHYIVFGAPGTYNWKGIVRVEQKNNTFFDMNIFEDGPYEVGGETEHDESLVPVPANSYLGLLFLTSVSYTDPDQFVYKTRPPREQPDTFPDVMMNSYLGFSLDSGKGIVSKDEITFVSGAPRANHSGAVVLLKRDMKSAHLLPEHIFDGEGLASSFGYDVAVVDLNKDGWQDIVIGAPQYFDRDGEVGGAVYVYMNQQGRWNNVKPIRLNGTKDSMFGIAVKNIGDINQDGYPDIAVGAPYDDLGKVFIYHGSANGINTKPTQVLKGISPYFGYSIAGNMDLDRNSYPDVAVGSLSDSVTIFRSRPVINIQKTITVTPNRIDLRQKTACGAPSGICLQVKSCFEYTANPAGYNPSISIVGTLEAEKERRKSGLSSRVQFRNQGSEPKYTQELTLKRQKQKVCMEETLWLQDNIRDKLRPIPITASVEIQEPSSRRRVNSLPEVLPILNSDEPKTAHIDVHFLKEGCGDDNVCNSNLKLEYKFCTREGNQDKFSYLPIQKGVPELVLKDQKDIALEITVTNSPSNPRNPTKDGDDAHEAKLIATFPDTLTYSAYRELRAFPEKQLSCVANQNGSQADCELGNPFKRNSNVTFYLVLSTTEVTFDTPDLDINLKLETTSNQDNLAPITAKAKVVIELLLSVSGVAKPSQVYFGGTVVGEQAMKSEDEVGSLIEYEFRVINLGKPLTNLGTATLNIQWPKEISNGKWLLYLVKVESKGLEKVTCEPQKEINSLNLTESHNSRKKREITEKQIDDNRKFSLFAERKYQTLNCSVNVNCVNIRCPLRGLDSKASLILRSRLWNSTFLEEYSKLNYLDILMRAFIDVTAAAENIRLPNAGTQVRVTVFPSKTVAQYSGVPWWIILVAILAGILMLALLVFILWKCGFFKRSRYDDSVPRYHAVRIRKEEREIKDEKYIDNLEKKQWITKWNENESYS", "sequence (P05556 21-798)": "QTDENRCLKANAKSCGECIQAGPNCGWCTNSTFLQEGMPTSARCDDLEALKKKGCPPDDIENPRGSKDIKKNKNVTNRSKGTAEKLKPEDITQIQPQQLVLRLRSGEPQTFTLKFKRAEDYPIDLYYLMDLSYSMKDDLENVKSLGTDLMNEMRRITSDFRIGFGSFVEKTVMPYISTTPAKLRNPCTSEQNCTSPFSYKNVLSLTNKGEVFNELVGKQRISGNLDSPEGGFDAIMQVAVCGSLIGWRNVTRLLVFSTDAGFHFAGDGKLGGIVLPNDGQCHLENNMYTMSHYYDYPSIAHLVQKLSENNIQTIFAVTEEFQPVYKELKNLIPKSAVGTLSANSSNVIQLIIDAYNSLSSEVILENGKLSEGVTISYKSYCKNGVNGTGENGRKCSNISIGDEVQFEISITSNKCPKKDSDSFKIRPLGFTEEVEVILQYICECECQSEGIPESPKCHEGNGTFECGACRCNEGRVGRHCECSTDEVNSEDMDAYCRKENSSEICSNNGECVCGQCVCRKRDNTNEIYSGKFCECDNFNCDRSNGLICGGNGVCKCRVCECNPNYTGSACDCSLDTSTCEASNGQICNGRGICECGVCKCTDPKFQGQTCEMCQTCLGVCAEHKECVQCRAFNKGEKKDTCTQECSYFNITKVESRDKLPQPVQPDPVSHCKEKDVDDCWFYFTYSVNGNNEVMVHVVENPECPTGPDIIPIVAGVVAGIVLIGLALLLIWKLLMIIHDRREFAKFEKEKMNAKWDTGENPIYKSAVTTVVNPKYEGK", "settings": "cited from earlier work"}, "[12]": {"test_system": "hES cells", "test": "Clonal survival of individualized hES cells (Example 4)", "type": "cell-based, human", "settings": "mTeSR1 medium, 250 cells per cm^2, 5 days, alkaline phosphatase staining", "method": "hES cells were plated in mTeSR1 medium on different coatings at a density of 250 cells per cm^2 and monitored after 5 days in culture using an alkaline phosphatase staining kit.\nNext, combinations of laminin-521 and E-Cadherin were tested to determine whether the combinations could sustain clonal survival of the cells. Fixed amounts of laminin-521 were used for the cell culture dish coating in combination with titrated E-Cadherin.\nAdditional tests were performed to test the effects of various modifications to the mTeSR1 medium. A mixture of E-Cadherin to laminin-521 in a ratio of about 1:10 w/w was used to coat the plates. […] Time-lapse photography of the cells confirmed that laminin-521/E-Cadherin coatings facilitated cell survival through proliferation of the single cells, not through the aggregation of different cells."}}}
{"molecule": "COc1cccc(-c2cc(=O)c3ccccc3o2)c1N", "note": "[PD 98059]", "values": [{"measurement": "efficacy of inhibitor treatment by western blot", "setting": "[1]", "value": "confirmed"}, {"measurement": "hES cell survival 24 hours after plating on LN-521 with pathway inhibitor", "setting": "[2]", "value": "did not affect the survival that severely"}]}
{"molecule": "C[C@@H](N)[C@H]1CC[C@H](C(=O)Nc2ccncc2)CC1", "note": "[Y-27632, reference compound]", "values": [{"measurement": "survival 24 hours after plating in the presence of ROCK inhibitor", "setting": "[3]; Matrigel, LN-111, LN-511, LN-521 or mixture coatings", "value": "survived on all surfaces"}, {"measurement": "cells remaining attached after one day", "setting": "[4]; O3 medium treated with ROCK inhibitor Y-27632, 5 coatings", "value": "remained attached on all 5 coatings"}]}
{"molecule": "LN-111: mouse laminin-111 (Invitrogen), indicated as LN-111 if not otherwise stated", "values": [{"measurement": "survival after 24 hours", "setting": "[3]", "value": "almost no cells had survived"}, {"measurement": "survival 24 hours after plating", "setting": "[3]", "value": "did not survive"}, {"measurement": "cells remaining attached / surviving 24 hours after plating", "setting": "[4]", "value": "almost no cells remained attached"}]}
{"molecule": "LN-121: human recombinant laminin with α1, β2 and γ1 chains from triple-transfected HEK293 cells", "values": [{"measurement": "survival 24 hours after plating", "setting": "[3]", "value": "failed to survive"}]}
{"molecule": "LN-511: human recombinant laminin-511 coating protein", "values": [{"measurement": "phosphorylation of MLC compared with cells on Matrigel and LN-111", "setting": "[5]", "value": "even higher"}, {"measurement": "duration of self-renewal of mouse ES cells", "setting": "[6]", "value": "over 5 months"}, {"measurement": "pluripotency of human ES cells grown over 3 months", "setting": "[7]", "value": "maintain pluripotency"}, {"measurement": "adhesion of human ES cells at 1 hour", "setting": "[8]", "value": "roughly the same"}, {"measurement": "survival after one day in culture", "setting": "[9]", "value": "in most cases"}, {"measurement": "survival after 24 hours", "setting": "[3]", "value": "very few"}, {"measurement": "survival 24 hours after plating", "setting": "[3]", "value": "did so as single cells"}, {"measurement": "cells remaining attached / surviving 24 hours after plating", "setting": "[4]", "value": "at a less extent"}, {"measurement": "spreading of the cells after one hour compared with Matrigel or LN-111", "setting": "[10]", "value": "clearly better"}, {"measurement": "binding affinity of integrin α6β1 compared with LN-111", "setting": "[11]", "value": "higher"}]}
{"molecule": "human recombinant LN-111: human recombinant laminin with α1, β1 and γ1 chains from triple-transfected HEK293 cells", "values": [{"measurement": "survival 24 hours after plating", "setting": "[3]", "value": "failed to survive"}]}
{"molecule": "B1", "values": [{"measurement": "clonal survival of individualized hES cells", "setting": "[12]", "value": "Neither laminin-521 nor E-Cadherin alone permitted efficient clonal survival"}]}
